The values that follow come from patent publication US20200223889A1, “Bicyclic Compounds Capable of Binding to Melanocortin 4 Receptor” (Novo Nordisk A/S, priority 2017, published 2020).

Test [1] concerns the target T1, human MC4R (Homo sapiens, UniProt P32245).
T1 construct: expressed in transfected cells
As to the kind of experiment: 125NDP-α-MSH competitive binding to membranes of BHK cells expressing human MC4 receptor (filtration assay). Conditions: human MC4R, BHK cell membranes, 125NDP-α-MSH radioligand; read-out: MC4R binding Ki. As to the method: In Vitro ^125NDP-α-MSH Binding to Recombinant BHK Cells Expressing Human MC4 Receptor (Filtration Assay)
In order to assess the binding affinity of the selected compounds for the human MC4R competitive binding assays was performed with radiolabeled NDP-alpha MSH (^125NDP-α-MSH).
The assay was performed in 96-well filterplates (Unifilter) using BHK cells stably expressing the human MC4 receptor.
The BHK cell membranes were prepared from frozen or fresh cells that were homogenized in 20 mM HEPES pH 7.1, 5 mM MgCl2, 1 mg/ml bacitracin (buffer 1) and centrifuged at 15000 rpm at 4° C., 10 min in a Sorvall RC 5B plus, SS-34 rotor. The supernatant was discarded, and the pellets were re-suspended in buffer 1, homogenized and centrifuged two more times. The final pellets were re-suspended in buffer 1 and the protein concentration was measured and adjusted with buffer 1 to 5 mg/ml and the membrane preparation was kept at −80° C. until assay. The assay was run on a dilution of this cell membrane suspension without any further preparation. The suspension was diluted to give maximally 10% specific binding, i.e. to approx. 50-100 fold dilution, optimized after each membrane preparation. The assay was performed in a total volume of 200 μl: 50 μl of cell suspension, 50 μl of ^125NDP-α-MSH (apx. […] in final concentration), 50 μl of test compound and 50 μl binding buffer were mixed and incubated for 2 h at 25° C. (binding buffer: 25 mM HEPES, pH 7.0, 1 mM CaCl2), 1 mM MgSO4, 1 mM EGTA, 0.005% Tween™ 20 and 0.1% HSA or, alternatively, 0.1% ovalbumin (Sigma; catalogue No. A-5503)). Test compounds were dissolved in 100% DMSO and diluted in binding buffer in a dose range from 1 μM to 0.001 nM. Radiolabelled ligand and membranes were diluted in binding buffer. The incubation was stopped by dilution with 8×100 μl ice-cold 0.9% NaCl. The radioactivity retained on the filters was counted using a Packard Topcounter. The data were analysed by non-linear regression analysis of binding curves, using the Windows™ program GraphPad™ Prism (GraphPad Software, USA).

Test [2] addresses T1, human MC4R. As to the kind of experiment: Functional cAMP assay (CisBio HTRF) in BHK cells expressing human MC4R. In kind it is cell-based. The following applies: for MC1R/MC4R cAMP EC50 ratio: MC1R cAMP EC50 divided by MC4R cAMP EC50. As to the method: In order to assess the potency of the compounds on human MC1R and human MC4R cAMP signalling was measured.
cAMP induction was measured by c-AMPdynamic2 assay, HTRF 62AM4PEC system from CisBio for the human MC1R and human MC4R according to the protocol provided by the vendor. BHK cells expressing the human MC1 or MC4 receptor were generated by stable transfection with expression vectors encoding the cDNA of either MC1R or MC4R.
In details; 25 μl compound—or standard solution were added in the respective wells. Compound was reconstituted in buffer (DMEM w/o phenol red, 10 mM
Hepes, lx Glutamine, 0.1% OV-albumin1, 1 mM IBMX) and serially diluted starting at 2 μM, 10-fold seven times. Dilutions were carried out in the same aforementioned buffer to the desired working concentration ranges (2× higher than the final concentration). 25 μl cell solution was then added and allowed to incubate for 30 min while lightly shaking, at 25° C. […] The provided components for the assay were reconstituted according to the CisBio assay protocol “3.1 supplied reagents and preparation procedure” in MilliQ purification system H2O and diluted 1:20 in lysis buffer. 25 μl cAMP-d2 and 25 μl Cryptate conjugate were added to all wells.
Plates were centrifuged at 1500 rpm for 30 sec and incubated for 1 h, lightly shaking, at 25° C. in a hotel stacker. The plates were read on Mithras LB 940 provided by Berthold Technologies The data were analysed by non-linear regression analysis of binding curves, using the Windows™ program GraphPad™ Prism (GraphPad Software, USA).
The latter is used when no full curve can be obtained in the concentration ranges indicated above.

The mark [3] stands for this setting: BHK cells expressing human MC4R, '>' = highest dose used with no response, read-out: MC4R cAMP EC50.

Where two headings read alike, the source gives them in different places. Starred links: 1 amine or outer side, 2 acyl side, 3 side chain; linkers in the order of their positions; H or OH if unused. Positions of bridges follow the written chain, without caps; N, C: chain ends. Non-standard residues stand in square brackets, D forms with d. Residues, ends and D or L forms follow the SMILES beside them. Pen = CC(C)(S)[C@H](N)C(=O)O; d(hCys) = N[C@H](CCS)C(=O)O; Orn = NCCC[C@H](N)C(=O)O; Thz = O=C(O)[C@@H]1CSCN1; X1 = C(CN[*:2])CS[*:1]

T1 sequence (P32245 whole entry): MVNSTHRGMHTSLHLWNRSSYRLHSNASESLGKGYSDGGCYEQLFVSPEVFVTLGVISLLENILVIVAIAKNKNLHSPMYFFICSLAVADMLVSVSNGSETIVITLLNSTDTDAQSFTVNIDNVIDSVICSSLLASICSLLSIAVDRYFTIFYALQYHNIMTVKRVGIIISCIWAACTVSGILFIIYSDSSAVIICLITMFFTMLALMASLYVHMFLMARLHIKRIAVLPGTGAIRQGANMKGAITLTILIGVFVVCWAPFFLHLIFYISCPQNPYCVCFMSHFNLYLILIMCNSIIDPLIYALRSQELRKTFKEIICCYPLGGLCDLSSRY

As usually defined, the Ki is a dissociation constant, usually derived from enzyme kinetics or from competition with a known ligand. The term EC50 denotes the midpoint of the concentration-response curve. As for `N=C(N)NCCC[C@@H]1NC(=O)[C@@H](Cc2ccccc2)NC(=O)[C@H](Cc2c[nH]cn2)NC(=O)CNC(=O)[C@@H]2CSSC[C@H](NC(=O)[C@H](Cc3c[nH]c4ccccc34)NC1=O)C(=O)NCC(=O)N[C@@H](Cc1c[nH]cn1)C(=O)N[C@H](Cc1ccccc1)C(=O)N[C@@H](CCCNC(=N)N)C(=O)N[C@@H](Cc1c[nH]c3ccccc13)C(=O)N2` [Chem. 2, c[c[Cys-Gly-His-D-Phe-Arg-Trp-Cys]- Gly-His-D-Phe-Arg-Trp]] (cyclo(CGH[dF]RWCGH[dF]RW); disulfide 1-7), the Ki on human MC4R [1] came to 0.07 nM. In addition, the EC50 on human MC4R [2] (setting [3]) came to 0.01 nM. In addition, the “MC1R/MC4R cAMP EC50 ratio” value at human MC4R [2] was determined as 154.
`CC(=O)N[C@@H](C)C(=O)N[C@@H](Cc1c[nH]cn1)C(=O)N[C@H](Cc1ccccc1)C(=O)N[C@@H](CCCNC(=N)N)C(=O)N[C@@H](Cc1c[nH]c2ccccc12)C(=O)N[C@@H]1CCSSCCCNC(=O)[C@H](Cc2c[nH]c3ccccc23)NC(=O)[C@H](CCCNC(=N)N)NC(=O)[C@@H](Cc2ccccc2)NC(=O)[C@H](Cc2c[nH]cn2)NC(=O)[C@H](C)NC1=O` [Chem. 3, c[c[HCys-Ala-His-D-Phe-Arg-Trp- HCys]-Ala-His-D-Phe-Arg-Trp]] (Ac-AH[dF]RW[d(hCys)]AH[dF]RW; linker 6-C via X1): the Ki on human MC4R [1] stood at 0.42 nM. Further, the EC50 on human MC4R [2] (setting [3]) was determined as 0.26 nM. The “MC1R/MC4R cAMP EC50 ratio” value at human MC4R [2] is recorded as 28.
The like results for `CC(=O)N[C@@H](Cc1c[nH]cn1)C(=O)N[C@H](Cc1ccccc1)C(=O)N[C@@H](CCCNC(=N)N)C(=O)N[C@@H](Cc1c[nH]c2ccccc12)C(=O)N[C@H](C)C(=O)N[C@@H]1CCSSCCCNC(=O)[C@@H](C)NC(=O)[C@H](Cc2c[nH]c3ccccc23)NC(=O)[C@H](CCCNC(=N)N)NC(=O)[C@@H](Cc2ccccc2)NC(=O)[C@H](Cc2c[nH]cn2)NC1=O` [Chem. 6, c[c[Cys-His-D-Phe-Arg-Trp-D-Ala- Cys]-His-D-Phe-Arg-Trp-D-Ala]] (Ac-H[dF]RW[dA][d(hCys)]H[dF]RW[dA]; linker 6-C via X1) were, in that order, 0.19 nM, 0.06 nM and 39.
Turning to `C[C@@H]1NC(=O)[C@@H]2CSSC[C@H](NC(=O)[C@H](CCCNC(=N)N)NC(=O)[C@H](Cc3c[nH]c4ccccc34)NC(=O)[C@H](CCCNC(=N)N)NC(=O)[C@@H](Cc3ccccc3)NC(=O)[C@H](Cc3c[nH]cn3)NC1=O)C(=O)N[C@@H](C)C(=O)N[C@@H](Cc1c[nH]cn1)C(=O)N[C@H](Cc1ccccc1)C(=O)N[C@@H](CCCNC(=N)N)C(=O)N[C@@H](Cc1c[nH]c3ccccc13)C(=O)N[C@@H](CCCNC(=N)N)C(=O)N2` [Chem. 69, c[c[Cys-Ala-His-D-Phe-Arg-Trp-Arg- Cys]-Ala-His-D-Phe-Arg-Trp-Arg]] (cyclo(AH[dF]RWRCAH[dF]RWRC); disulfide 7-14), the “MC1R/MC4R cAMP EC50 ratio” value at human MC4R [2] came to 5.
In the case of `C[C@@H]1NC(=O)[C@@H]2CSSC[C@H](NC(=O)[C@H](CCCNC(=N)N)NC(=O)[C@H](CCCNC(=N)N)NC(=O)[C@H](CCC(=O)O)NC(=O)[C@H](CCCNC(=N)N)NC1=O)C(=O)N1CSC[C@H]1C(=O)N[C@@H](Cc1c[nH]cn1)C(=O)N[C@H](Cc1ccccc1)C(=O)N[C@@H](Cc1c[nH]cn1)C(=O)N[C@@H](Cc1c[nH]c3ccccc13)C(=O)N2` [Chem. 113, c[c[Cys-THAZ-His-D-Phe-His-Trp- Cys]-Ala-Arg-Glu-Arg-Arg]] (cyclo(ARERRC[Thz]H[dF]HWC); disulfide 6-12), at human MC4R [2], a half-maximal response (EC50) required 0.02 nM and the “MC1R/MC4R cAMP EC50 ratio” value turned out to be 2112.
On the same counts, the results for `C[C@@H]1NC(=O)[C@H](C)NC(=O)[C@H](CCCN)NC(=O)[C@H](CCCCN)NC(=O)[C@@H]2CSSC[C@H](NC(=O)[C@H](Cc3c[nH]c4ccccc34)NC1=O)C(=O)N1CSC[C@H]1C(=O)N[C@@H](Cc1c[nH]cn1)C(=O)N[C@H](Cc1ccccc1)C(=O)N[C@@H](Cc1c[nH]cn1)C(=O)N[C@@H](Cc1c[nH]c3ccccc13)C(=O)N2` [Chem. 115, c[c[Cys-THAZ-His-D-Phe-His-Trp-C ys]-Lys-Orn-Ala-Ala-Trp]] (cyclo(AAWC[Thz]H[dF]HWCK[Orn]); disulfide 4-10) are 0.1 nM and 1340.
On the same counts, the results for `C[C@@H]1NC(=O)[C@H](C)NC(=O)[C@H](CCCN)NC(=O)[C@H](CCCN)NC(=O)[C@@H]2CSSC[C@H](NC(=O)[C@H](Cc3c[nH]c4ccccc34)NC1=O)C(=O)N1CSC[C@H]1C(=O)N[C@@H](Cc1c[nH]cn1)C(=O)N[C@H](Cc1ccccc1)C(=O)N[C@@H](Cc1c[nH]cn1)C(=O)N[C@@H](Cc1c[nH]c3ccccc13)C(=O)N2` [Chem. 116, c[c[Cys-THAZ-His-D-Phe-His-Trp- Cys]-Orn-Orn-Ala-Ala-Trp]] (cyclo(AAWC[Thz]H[dF]HWC[Orn][Orn]); disulfide 4-10) are 0.12 nM and 1927.
The like results for `C[C@@H]1NC(=O)[C@H](C)NC(=O)[C@H](CCCCN)NC(=O)[C@H](CCCCN)NC(=O)[C@H]2NC(=O)[C@H](Cc3c[nH]c4ccccc34)NC(=O)[C@H](Cc3c[nH]cn3)NC(=O)[C@@H](Cc3ccccc3)NC(=O)[C@H](Cc3c[nH]cn3)NC(=O)[C@@H]3CSCN3C(=O)[C@H](CSSC2(C)C)NC(=O)[C@H](Cc2c[nH]c3ccccc23)NC1=O` [Chem. 117, c[c[Cys-THAZ-His-D-Phe-His-Trp- Pen]-Lys-Lys-Ala-Ala-Trp]] (cyclo(AAWC[Thz]H[dF]HW[Pen]KK); disulfide 4-10) were, in that order, 0.2 nM and 841.
Take `N=C(N)NCCC[C@@H]1NC(=O)[C@H](CCCCN)NC(=O)[C@@H]2CSSC[C@H](NC1=O)C(=O)N1CSC[C@H]1C(=O)N[C@@H](Cc1c[nH]cn1)C(=O)N[C@H](Cc1ccccc1)C(=O)N[C@@H](Cc1c[nH]cn1)C(=O)N[C@@H](Cc1c[nH]c3ccccc13)C(=O)N2` [Chem. 118, c[c[Cys-THAZ-His-D-Phe-His-Trp- Cys]-Lys-Arg]] (cyclo(CKRC[Thz]H[dF]HW); disulfide 1-4): at human MC4R [2], the “MC1R/MC4R cAMP EC50 ratio” value is recorded as 1240.
Take `C[C@@H]1NC(=O)[C@@H]2CSSC[C@H](NC(=O)[C@H](CCCNC(=N)N)NC(=O)[C@H](CCCN)NC(=O)[C@H](CCC(=O)O)NC(=O)[C@H](CCCN)NC1=O)C(=O)N1CSC[C@H]1C(=O)N[C@@H](Cc1c[nH]cn1)C(=O)N[C@H](Cc1ccccc1)C(=O)N[C@@H](Cc1c[nH]cn1)C(=O)N[C@@H](Cc1c[nH]c3ccccc13)C(=O)N2` [Chem. 119, c[c[Cys-THAZ-His-D-Phe-His-Trp- Cys]-Ala-Orn-Glu-Orn-Arg]] (cyclo(A[Orn]E[Orn]RC[Thz]H[dF]HWC); disulfide 6-12): at human MC4R [2], the EC50 turned out to be 0.06 nM and the “MC1R/MC4R cAMP EC50 ratio” value is 1660.
Consider `C[C@@H]1NC(=O)[C@@H]2CSSC[C@H](NC(=O)[C@H](CCCNC(=N)N)NC(=O)[C@@H](CCCCN)NC(=O)[C@@H](CCCCN)NC(=O)[C@H](Cc3c[nH]cn3)NC1=O)C(=O)N1CCC[C@H]1C(=O)N[C@@H](Cc1c[nH]cn1)C(=O)N[C@H](Cc1ccccc1)C(=O)N[C@@H](Cc1c[nH]cn1)C(=O)N[C@@H](Cc1c[nH]c3ccccc13)C(=O)N2` [Chem. 121, c[c[Cys-Pro-His-D-Phe-His-Trp-Cys]- Ala-His-D-Lys-D-Lys-Arg]] (cyclo(AH[dK][dK]RCPH[dF]HWC); disulfide 6-12), for which the EC50 on human MC4R [2] (setting [3]) was determined as 0.24 nM. Further, the “MC1R/MC4R cAMP EC50 ratio” value on human MC4R [2] is 786.
